From patent US8546421B1, “Oncogenic-RAS-signal dependent lethal compounds” (The Trustees of Columbia University in the City of New York, priority 2007, dated 2013)
In brackets after ≈: the same amount, converted by molar mass.

Key:
[1] = test system: BJ-TERT/LT/ST/RAS^V12 cells; assay: Alamar blue growth inhibition in dilution series; assay type: cell-based, human; conditions: Homo sapiens, alamar blue
UACC-62 = assay: NCI60 anti-cancer screening
HCT-116 = assay: NCI60 anti-cancer screening
SF-268 = assay: NCI60 anti-cancer screening
HL-60(TB) = conditions: Leukemia
SK-MEL-2 = assay: NCI60 anti-cancer screening
SF-539 = assay: NCI60 anti-cancer screening
PaCa-2 = assay: Alamar Blue assay, additional cell lines; assay type: cell-based, human; conditions: Pancreatic Cancer
Excerpt: (§1) The results of this additional testing are summarized in Tables 7-10 (no additional cell lines were identified as sensitive for Compound 3). […] The tumor type, cell line, maximum percentage inhibition, the concentration of compound required to inhibit cell growth by 50%, and RAS mutation (if any) are also summarized.

Calu-1 = assay: Alamar Blue assay, additional cell lines; assay type: cell-based, human; conditions: Calu-1, Non-small cell lung carcinoma, Alamar Blue
Excerpt: as §1

COLO 205 = assay: NCI60 anti-cancer screening
[2] = test system: BJ-TERT/LT/ST/RAS^V12 cells; assay: Counter screening with iron chelators; assay type: cell-based, human; conditions: DFOM and three additional iron-binding compounds; 24 hours
Protocol: Cells were treated with iron chelators by transferring 4 μL of 1 mM deferoxamine mesylate (Calbiochem, cat.#252750), 500 μM compound 1a (Chembridge, cat.#5175092), 1 mM compound 2 (Ryan Scientific, cat.#LT01784723), or 100 μM compound 311 (Chembridge, cat.#5135701) in growth media to the assay plate. Then, 4 μL was transferred from the ‘10× lethal plate’ (described in ‘counter screening with biologically active compounds’) to the assay plate in order to induce cell death. Assay plates were incubated for 24 hours and alamar blue was added to the plates at a final concentration of 10%.

SK-MEL-5 = assay: NCI60 anti-cancer screening
OVCAR-8 = assay: NCI60 anti-cancer screening
RXF393 = assay: NCI60 anti-cancer screening
SNB-75 = assay: NCI60 anti-cancer screening
CCRF-CEM = assay: NCI60 anti-cancer screening
HT29 = assay: NCI60 anti-cancer screening
BT-549 = assay: NCI60 anti-cancer screening
UACC-257 = assay: NCI60 anti-cancer screening
K-562 = assay: NCI60 anti-cancer screening
MCF-7 = assay: NCI60 anti-cancer screening
NCI/ADR-RES = assay: NCI60 anti-cancer screening
MALME-3M = assay: NCI60 anti-cancer screening
MDA-MB-231/ATCC = assay: NCI60 anti-cancer screening
OVCAR-3 = assay: cells; conditions: Homo sapiens
LOX IMVI = assay: NCI60 anti-cancer screening
HOP-92 = assay: NCI60 anti-cancer screening

For `C=C1CCC2C(C)(C)CCC[C@]2(C)C1CC/C(C)=C\CC/C(C)=N/NC(N)=S` (stereo partly drawn) [Compound 36], which IC90 [1] is on record?
Its IC90 is 1 µg/mL (≈ 2.48 µM).

And the GI50 (UACC-62; Homo sapiens, UACC-62)?
The GI50 was 214 nM.

What about the CC50 (UACC-62; Homo sapiens, UACC-62, read-out: LC 50%) of the same molecule?
Its CC50 is 853 nM.

And the “GI 100%” value (UACC-62; UACC-62, Melanoma)?
Its value is 0.427 µM.

And the “GI 100%” value (HCT-116; HCT-116, Colon Cancer)?
The value was 1.11 µM.

What about the GI50 (HCT-116; Homo sapiens, HCT-116) of the same molecule?
Its GI50 is 252 nM.

What about the CC50 (HCT-116; Homo sapiens, HCT-116, read-out: LC 50%) of the same molecule?
The CC50 was 3.32 µM.

And the GI50 (SF-268; Homo sapiens, SF-268)?
The GI50 was 1090 nM.

And the CC50 (SF-268; Homo sapiens, SF-268, read-out: LC 50%)?
Its CC50 is 5.74 µM.

And the “GI 100%” value (SF-268; SF-268, CNS Cancer)?
The value was 2.5 µM.

What about the “GI 100%” value (HL-60(TB)) of the same molecule?
The value was 0.545 µM.

And the GI50 (SK-MEL-2; Homo sapiens, SK-MEL-2)?
The GI50 was 297 nM.

And the CC50 (SK-MEL-2; Homo sapiens, SK-MEL-2, read-out: LC 50%)?
The CC50 was 4.93 µM.

What about the “GI 100%” value (SK-MEL-2; SK-MEL-2, Melanoma) of the same molecule?
The value was 1.01 µM.

What about the GI50 (SF-539; Homo sapiens, SF-539) of the same molecule?
The GI50 was 191 nM.

And the CC50 (SF-539; Homo sapiens, SF-539, read-out: LC 50%)?
The CC50 was 638 nM.

And the “GI 100%” value (SF-539; SF-539, CNS Cancer)?
Its value is 0.349 µM.

What about the GI50 (PaCa-2; Homo sapiens) of the same molecule?
Its GI50 is 1500 nM.

What about the “Maximum Inhibition %” value (PaCa-2) of the same molecule?
Its value is 100%.

What about the “Maximum Inhibition %” value (Calu-1) of the same molecule?
Its value is 100%.

What about the GI50 (Calu-1; Homo sapiens) of the same molecule?
The GI50 was 300 nM.

What about the “GI 100%” value (COLO 205; COLO 205, Colon Cancer) of the same molecule?
Its value is 0.451 µM.

And the GI50 (COLO 205; Homo sapiens, COLO 205)?
Its GI50 is 184 nM.

What about the CC50 (COLO 205; Homo sapiens, COLO 205, read-out: LC 50%) of the same molecule?
Its CC50 is 1460 nM.

What about the “effect of iron chelators on compound activity / induced cell death” value [2] of the same molecule?
Its value is “significantly inhibited”.

What about the GI50 (SK-MEL-5; Homo sapiens, SK-MEL-5) of the same molecule?
The GI50 was 209 nM.

And the CC50 (SK-MEL-5; Homo sapiens, SK-MEL-5, read-out: LC 50%)?
Its CC50 is 3.05 µM.

What about the “GI 100%” value (SK-MEL-5; SK-MEL-5, Melanoma) of the same molecule?
Its value is 0.898 µM.

And the GI50 (OVCAR-8; Homo sapiens, OVCAR-8)?
The GI50 was 1160 nM.

What about the CC50 (OVCAR-8; Homo sapiens, OVCAR-8, read-out: LC 50%) of the same molecule?
The CC50 was 7.48 µM.

And the “GI 100%” value (OVCAR-8; OVCAR-8, Ovarian Cancer)?
The value was 2.94 µM.

What about the GI50 (RXF393; Homo sapiens, RXF 393) of the same molecule?
The GI50 was 181 nM.

What about the CC50 (RXF393; Homo sapiens, RXF 393, read-out: LC 50%) of the same molecule?
Its CC50 is 2490 nM.

And the “GI 100%” value (RXF393; RXF393, Renal Cancer)?
Its value is 0.485 µM.

What about the GI50 (SNB-75; Homo sapiens, SNB-75) of the same molecule?
Its GI50 is 372 nM.

And the CC50 (SNB-75; Homo sapiens, SNB-75, read-out: LC 50%)?
Its CC50 is 4.3 µM.

What about the “GI 100%” value (SNB-75; SNB-75, CNS Cancer) of the same molecule?
Its value is 1.26 µM.

And the GI50 (CCRF-CEM; Homo sapiens)?
Its GI50 is 165 nM.

And the CC50 (CCRF-CEM; Homo sapiens, read-out: LC 50%)?
The CC50 was 5.57 µM.

And the “GI 100%” value (CCRF-CEM; Leukemia)?
The value was 0.705 µM.

And the “GI 100%” value (HT29; HT29, Colon Cancer)?
The value was 1.37 µM.

What about the GI50 (HT29; Homo sapiens, HT-29) of the same molecule?
Its GI50 is 322 nM.

What about the CC50 (HT29; Homo sapiens, HT-29, read-out: LC 50%) of the same molecule?
Its CC50 is 4.1 µM.

What about the “GI 100%” value (BT-549; BT-549, Breast Cancer) of the same molecule?
The value was 1.3 µM.

And the GI50 (BT-549; Homo sapiens, BT-549)?
Its GI50 is 302 nM.

And the CC50 (BT-549; Homo sapiens, BT-549, read-out: LC 50%)?
The CC50 was 4.07 µM.

What about the GI50 (UACC-257; Homo sapiens, UACC-257) of the same molecule?
Its GI50 is 1260 nM.

What about the CC50 (UACC-257; Homo sapiens, UACC-257, read-out: LC 50%) of the same molecule?
The CC50 was 6.99 µM.

What about the “GI 100%” value (UACC-257; UACC-257, Melanoma) of the same molecule?
Its value is 2.97 µM.

And the GI50 (K-562; Homo sapiens, K562)?
The GI50 was 267 nM.

And the CC50 (K-562; Homo sapiens, K562, read-out: LC 50%)?
Its CC50 is 3.51 µM.

And the “GI 100%” value (K-562; K-562, Leukemia)?
Its value is 1.08 µM.

What about the GI50 (MCF-7; Homo sapiens, MCF7) of the same molecule?
Its GI50 is 265 nM.

What about the CC50 (MCF-7; Homo sapiens, MCF7, read-out: LC 50%) of the same molecule?
The CC50 was 3.83 µM.

And the “GI 100%” value (MCF-7; MCF-7, Breast Cancer)?
Its value is 1.34 µM.

What about the “GI 100%” value (NCI/ADR-RES; Breast Cancer) of the same molecule?
The value was 2.34 µM.

What about the GI50 (NCI/ADR-RES; Homo sapiens) of the same molecule?
The GI50 was 1040 nM.

And the CC50 (NCI/ADR-RES; Homo sapiens, read-out: LC 50%)?
The CC50 was 5.27 µM.

What about the GI50 (MALME-3M; Homo sapiens, Malme-3M) of the same molecule?
Its GI50 is 550 nM.

And the CC50 (MALME-3M; Homo sapiens, Malme-3M, read-out: LC 50%)?
Its CC50 is 4.57 µM.

And the “GI 100%” value (MALME-3M; MALME-3M, Melanoma)?
The value was 1.83 µM.

What about the GI50 (MDA-MB-231/ATCC; Homo sapiens, MDA-MB-231) of the same molecule?
The GI50 was 341 nM.

And the CC50 (MDA-MB-231/ATCC; Homo sapiens, MDA-MB-231, read-out: LC 50%)?
Its CC50 is 3.27 µM.

And the “GI 100%” value (MDA-MB-231/ATCC; MDA-MB-231/ATCC, Breast Cancer)?
Its value is 1.36 µM.

What about the GI50 (OVCAR-3; OVCAR-3) of the same molecule?
Its GI50 is 204 nM.

What about the CC50 (OVCAR-3; OVCAR-3, read-out: LC 50%) of the same molecule?
The CC50 was 4.2 µM.

What about the GI50 (LOX IMVI; Homo sapiens) of the same molecule?
Its GI50 is 203 nM.

What about the CC50 (LOX IMVI; Homo sapiens, read-out: LC 50%) of the same molecule?
Its CC50 is 1320 nM.

And the “GI 100%” value (LOX IMVI; Melanoma)?
The value was 0.478 µM.

What about the “GI 100%” value (HOP-92; HOP-92, Non-small cell lung carcinoma) of the same molecule?
Its value is 1.52 µM.

And the GI50 (HOP-92; Homo sapiens, HOP-92)?
The GI50 was 479 nM.

And the CC50 (HOP-92; Homo sapiens, HOP-92, read-out: LC 50%)?
Its CC50 is 3.96 µM.
